Usually IC50 stands for the point on the concentration scale where inhibition reaches its midpoint.
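Also: biochemical JAK kinase assay with HTRF detection.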

Chain of JAK2 (recombinant purified GST-tagged catalytic domain) (O60674 849-1124): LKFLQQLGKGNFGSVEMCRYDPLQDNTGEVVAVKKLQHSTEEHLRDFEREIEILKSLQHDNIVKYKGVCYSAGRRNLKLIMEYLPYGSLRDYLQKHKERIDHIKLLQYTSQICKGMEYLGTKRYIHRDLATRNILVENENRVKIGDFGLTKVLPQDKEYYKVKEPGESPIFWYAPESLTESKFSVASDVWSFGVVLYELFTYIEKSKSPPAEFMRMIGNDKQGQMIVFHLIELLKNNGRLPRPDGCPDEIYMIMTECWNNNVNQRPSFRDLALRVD

This test has as its target JAK2 (recombinant purified GST-tagged catalytic domain) (Homo sapiens (Human), UniProt O60674). As to the kind of experiment: biochemical.
`N#C[C@H]1CC(N2CCC[C@@H]2CF)CC[C@@H]1n1cc(C(N)=O)c(Nc2ccc(S(=O)(=O)C(F)(F)F)cc2)n1` (single isomer, unassigned) [Example 28-156, 1-{(1S,2S or 1R,2R)-2-cyano-4-[(2R)-2-(fluoromethyl)pyrrolidin-1-yl]cyclohexyl}-3-({4-[(trifluoro-methyl)sulfonyl]phenyl}amino)-1H-pyrazole-4-carboxamide]: the IC50 was 14 nM.

`N#C[C@H]1CC(N2CCC[C@H]2CF)CC[C@@H]1n1cc(C(N)=O)c(Nc2ccc(S(=O)(=O)C(F)(F)F)cc2)n1` (single isomer, unassigned) [Example 28-157, 1-{(1S,2S or 1R,2R)-2-cyano-4-[(2S)-2-(fluoromethyl)pyrrolidin-1-yl]cyclohexyl}-3-({4-[(trifluoro-methyl)sulfonyl]phenyl}amino)-1H-pyrazole-4-carboxamide]: the concentration for half-maximal inhibition (IC50) worked out at 28 nM.

For the molecule `N#C[C@H]1C[C@@H](NCC(F)F)CC[C@@H]1n1cc(C(N)=O)c(Nc2ccc(S(=O)(=O)C(F)(F)F)cc2)n1` (single isomer, unassigned) [Example 28-165, 1-{(1S,2S,4S or 1R,2R,4R)-2-cyano-4-[(2,2-difluoroethyl)amino]cyclohexyl}-3-({4-[(trifluoro-methyl)sulfonyl]phenyl}amino)-1H-pyrazole-4-carboxamide], the IC50 stood at 4 nM.

Regarding `N#C[C@H]1C[C@@H](NCCC(F)(F)F)CC[C@@H]1n1cc(C(N)=O)c(Nc2ccc(S(=O)(=O)C(F)(F)F)cc2)n1` (single isomer, unassigned) [Example 28-166, 1-{(1S,2S,4S or 1R,2R,4R)-2-cyano-4-[(3,3,3-trifluoro-propyl)amino]cyclohexyl}-3-({4-[(trifluoro-methyl)sulfonyl]phenyl}amino)-1H-pyrazole-4-carboxamide], the IC50 came to 55 nM.

As to `N#C[C@H]1C[C@H](NCCC(F)(F)F)CC[C@@H]1n1cc(C(N)=O)c(Nc2ccc(S(=O)(=O)C(F)(F)F)cc2)n1` (single isomer, unassigned) [Example 28-167, 1-{(1S,2S,4R or 1R,2R,4S)-2-cyano-4-[(3,3,3-trifluoropropyl)amino]cyclo-hexyl}-3-({4-[(trifluoro-methyl)sulfonyl]phenyl}amino)-1H-pyrazole-4-carboxamide], the IC50 was found to be 82 nM.

For the molecule `N#C[C@H]1C[C@@H](NCC2CC2)CC[C@@H]1n1cc(C(N)=O)c(Nc2ccc(S(=O)(=O)C(F)(F)F)cc2)n1` (single isomer, unassigned) [Example 28-172, 1-{(1S,2S,4S or 1R,2R,4R)-2-cyano-4-[(cyclopropylmethyl)amino]cyclo-hexyl}-3-({4-[(trifluoromethyl)sulfonyl]phen-yl}amino)-1H-pyrazolc-4-carboxamide], the IC50 came to 8 nM.

Take `N#C[C@H]1C[C@H](NCC2CC2)CC[C@@H]1n1cc(C(N)=O)c(Nc2ccc(S(=O)(=O)C(F)(F)F)cc2)n1` (single isomer, unassigned) [Example 28-173, 1-{(1S,2S,4R or 1R,2R,4S)-2-cyano-4-[(cyclopropyl-methyl)amino]cyclohexyl}-3-({4-[(trifluoro-methyl)sulfonyl]phenyl}amino)-1H-pyrazole-4-carboxamide]: the IC50 turned out to be 24 nM.

As for `CC(N[C@H]1CC[C@H](n2cc(C(N)=O)c(Nc3ccc(S(=O)(=O)C(F)(F)F)cc3)n2)[C@@H](C#N)C1)C1CC1` (single isomer, unassigned) [Example 28-176, 1-[(1S,2S,4S or 1R,2R,4R)-2-cyano-4-{[(1R)-1-cyclopropylethyl]amino}cyclo-hexyl]-3-({4-[(trifluoromethyl)sulfonyl]phen-yl}amino)-1H-pyrazole-4-carboxamide], the concentration for half-maximal inhibition (IC50) is 11 nM.

Turning to `CC(N[C@@H]1CC[C@H](n2cc(C(N)=O)c(Nc3ccc(S(=O)(=O)C(F)(F)F)cc3)n2)[C@@H](C#N)C1)C1CC1` (single isomer, unassigned) [Example 28-177, 1-[(1S,2S,4R or 1R,2R,4S)-2-cyano-4-{[(1S)-1-cyclopropylethyl]amino}cyclo-hexyl]-3-({4-[(trifluoromethyl)sulfonyl]phen-yl]amino)-1H-pyrazole-4-carboxamide], the IC50 is 43 nM.

Turning to `CN(C(C1CC1)C1CC1)[C@H]1CC[C@H](n2cc(C(N)=O)c(Nc3ccc(S(=O)(=O)C(F)(F)F)cc3)n2)[C@@H](C#N)C1` (single isomer, unassigned) [Example 28-178, 1-{(1S,2S,4S or 1R,2R,4R)-2-cyano-4-[(dicyclopropyl-methyl)(methyl)amino]cyclo-hexyl}-3-({4-[(trifluoromethyl)sulfonyl]phen-yl}amino)-1H-pyrazole-4-carboxamide], the 50% inhibitory concentration (IC50) is 2 nM.

Turning to `CN(C(C1CC1)C1CC1)[C@@H]1CC[C@H](n2cc(C(N)=O)c(Nc3ccc(S(=O)(=O)C(F)(F)F)cc3)n2)[C@@H](C#N)C1` (single isomer, unassigned) [Example 28-179, 1-{(1S,2S,4R or 1R,2R,4S)-2-cyano-4-[(dicyclopropyl-methyl)(methyl)amino]cyclo-hexyl}-3-({4-[(trifluoromethyl)sulfonyl]phen-yl}amino)-1H-pyrazole-4-carboxamide], the IC50 is 170 nM.

Take `C[C@@H](N[C@H]1CC[C@H](n2cc(C(N)=O)c(Nc3ccc(S(=O)(=O)C(F)(F)F)cc3)n2)[C@@H](C#N)C1)C1CC1` (single isomer, unassigned) [Example 28-182, 1-[(1S,2S,4S or 1R,2R,4R)-2-cyano-4-{[(1R)-1-cyclopropylethyl]amino}cyclo-hexyl]-3-({4-[(trifluoromethyl)sulfonyl]phen-yl}amino)-1H-pyrazole-4-carboxamide]: the IC50 was found to be 12 nM.

Turning to `C[C@@H](N[C@@H]1CC[C@H](n2cc(C(N)=O)c(Nc3ccc(S(=O)(=O)C(F)(F)F)cc3)n2)[C@@H](C#N)C1)C1CC1` (single isomer, unassigned) [Example 28-183, 1-{(1S,2S,4R or 1R,2R,4S)-2-cyano-4-[(1-cyclopropylethyl)amino]cyclo-hexyl}-3-({4-[(trifluoromethyl)sulfonyl]phen-yl}amino)-1H-pyrazole-4-carboxamide], the IC50 stood at 61 nM.

In the case of `C[C@H](N[C@H]1CC[C@H](n2cc(C(N)=O)c(Nc3ccc(S(=O)(=O)C(F)(F)F)cc3)n2)[C@@H](C#N)C1)C1CC1` (single isomer, unassigned) [Example 28-184, 1-{(1S,2S,4S or 1R,2R,4R)-2-cyano-4-[(1-cyclopropylethyl)amino]cyclo-hexyl}-3-({4-[(trifluoromethyl)sulfonyl]phen-yl}amino)-1H-pyrazole-4-carboxamide], the IC50 stood at 23 nM.

Take `C[C@H](N[C@@H]1CC[C@H](n2cc(C(N)=O)c(Nc3ccc(S(=O)(=O)C(F)(F)F)cc3)n2)[C@@H](C#N)C1)C1CC1` (single isomer, unassigned) [Example 28-185, 1-[(1S,2S,4R or 1R,2R,4S)-2-cyano-4-{[(1S)-1-cyclopropylethyl]amino}cyclo-hexyl]-3-({4-[(trifluoromethyl)sulfonyl]phen-yl}amino)-1H-pyrazole-4-carboxamide]: the IC50 stood at 83 nM.

For the molecule `CN(C)[C@H]1CC[C@H](n2cc(C(N)=O)c(Nc3ccc(C(F)(F)F)cc3)n2)[C@@H](C#N)C1` (single isomer, unassigned) [Example 28-188, 1-[(1S,2S,4S or 1R,2R,4R)-2-cyano-4-(dimethylamino)cyclohexyl]-3-{[4-(trifluoromethyl)phenyl]amino}-1H-pyrazole-4-carboxamide], the IC50 worked out at 14 nM.

Take `CN(C)[C@@H]1CC[C@H](n2cc(C(N)=O)c(Nc3ccc(C(F)(F)F)cc3)n2)[C@@H](C#N)C1` (single isomer, unassigned) [Example 28-189, 1-[(1S,2S,4R or 1R,2R,4S)-2-cyano-4-(dimethylamino)cyclohexyl]-3-{[4-(trifluoromethyl)phenyl]amino}-1H-pyrazole-4-carboxamide]: the IC50 stood at 21 nM.

`CC1(C)CN([C@H]2CC[C@H](n3cc(C(N)=O)c(Nc4ccc(C(F)(F)F)cc4)n3)[C@@H](C#N)C2)C1` (single isomer, unassigned) [Example 28-202, 1-[(1S,2S,4S or 1R,2R,4R)-2-cyano-4-(3,3-dimethylazetidin-1-yl)cyclohexyl]-3-{[4-(trifluoromethyl)phenyl]amino}-1H-pyrazole-4-carboxamide]: the IC50 was 39 nM.

Regarding `CC1(C)CN([C@@H]2CC[C@H](n3cc(C(N)=O)c(Nc4ccc(C(F)(F)F)cc4)n3)[C@@H](C#N)C2)C1` (single isomer, unassigned) [Example 28-203, 1-[(1S,2S,4R or 1R,2R,4S)-2-cyano-4-(3,3-dimethylazetidin-1-yl)cyclohexyl]-3-{[4-(trifluoromethyl)phenyl]amino}-1H-pyrazole-4-carboxamidc], the IC50 worked out at 285 nM.

Turning to `CC1(N[C@H]2CCC(n3cc(C(N)=O)c(Nc4ccc(Cl)cc4)n3)[C@@H](C#N)C2)COC1` (single isomer, unassigned) [Example 28-207, 3-[(4-chlorophenyl)amino]-1-{(1S,2S,4S or 1R,2R,4R)-2-cyano-4-[(3-methyloxetan-3-yl)amino]cyclohexyl}-1H-pyrazole-4-carboxamide], the concentration for half-maximal inhibition (IC50) was 22 nM.

In the case of `CC(C)(N[C@H]1CCC(n2cc(C(N)=O)c(Nc3ccccc3)n2)[C@@H](C#N)C1)C1CC1` (single isomer, unassigned) [Example 28-214, 1-{(1S,2S,4S or 1R,2R,4R)-2-cyano-4-[(1-cyclopropyl-1-methylethyl)amino]cyclohexyl}-3-(phenylamino)-1H-pyrazole-4-carboxamide], the IC50 was 38 nM.

For `CC(C)(C)N[C@H]1CCC(n2cc(C(N)=O)c(Nc3ccccc3)n2)[C@@H](C#N)C1` (single isomer, unassigned) [Example 28-215, 1-[(1S,2S,4S or 1R,2R,4R)-4-(tert-butylamino)-2-cyanocyclohexyl]-3-(phenylamino)-1H-pyrazole-4-carboxamide], the half-inhibitory concentration (IC50) came to 28 nM.

For the molecule `CC1(CN[C@H]2CCC(n3cc(C(N)=O)c(Nc4ccc(Cl)cc4)n3)[C@@H](C#N)C2)COC1` (single isomer, unassigned) [Example 28-217, 3-[(4-chlorophenyl)amino]-1-[(1S,2S,4S or 1R,2R,4R)-2-cyano-4-{[(3-methyloxetan-3-yl)methyl]amino}cyclohexyl]-1H-pyrazole-4-carboxamide], the IC50 is 47 nM.

(Values after US8962608B2, “Cycloalkylnitrile pyrazole carboxamides as janus kinase inhibitors” (Merck Sharp & Dohme Corp., priority 2011, dated 2015).)
